Like-named read-outs stand apart in the source and are kept apart here.
Columns and labels:
MV-4-11 cells = assay: Antiproliferative activity against MV-4-11 cells (CellTiter-Glo, 72 h); format: cell-based; conditions: Homo sapiens, read-out: Antiproliferative activity IC50
Protocol: MV411 cells in the logarithmic growth phase were diluted in a medium (RPMI+10% FBS) and plated at 5,000 cells/well in 96-well whole black plates (WHB) with 50 μL/well. After plating, the plates were incubated in an incubator at 5% CO2 and 37° C. for 24 h before the compounds were added. The compounds were prepared into a 10 mM stock solution in DMSO and diluted in a culture medium to the desired concentrations (a final DMSO concentration of 0.2%). […] The plates were incubated at 5% CO2 and 37° C. for 72 h. After the incubation was complete, the plates were equilibrated at room temperature for 30 min. CellTiter-Glo® Reagent (Promega G7573) was added at 100 μL/well. The plates were shaken for 12 min on a microplate shaker. The luminescence value was measured at room temperature by the GloMax navigator (Promega GM2010).

GSPT1 protein = target: T1, GSPT1 protein (Homo sapiens, UniProt P15170); assay: Degradation of GSPT1 protein in NB-4 cells (Western blot); format: cell-based; conditions: for inhibition at 1 µM: read-out: GSPT1 degradation
T1 construct: The whole cell lysate was prepared using a RIPA lysis buffer; endogenous in cells; host or cells: NB-4 cells
Protocol: 150 μL of DMSO and the compounds (1 μM) were added, and the mixture was incubated in an incubator at 5% CO2 and 37° C. for 6 h. The cells were centrifuged, and the culture medium was discarded. PBS was added for washing and then discarded. The whole cell lysate was prepared using a RIPA lysis buffer containing a protease inhibitor cocktail and a phosphatase inhibitor, and incubated on ice for 30 min. The mixture was centrifuged, and the cell debris was discarded. The whole cell lysate supernatant was collected and transferred to a fresh EP tube. Samples were prepared using a loading buffer after a BCA protein assay. The samples were incubated in a metal bath at 100° C. for 10 min.
The samples were electrophoretically separated from proteins on a 4-20% precast gel (SDS-PAGE gel), transferred to a PVDF membrane, blocked with 5% NFDM/TBST for 1 h at room temperature, co-incubated overnight at 4° C. with the primary antibody, and co-incubated for 2 h at room temperature with the secondary antibody on the next day. The signals were detected on the […]™ imaging system.

T1 sequence (P15170 whole entry): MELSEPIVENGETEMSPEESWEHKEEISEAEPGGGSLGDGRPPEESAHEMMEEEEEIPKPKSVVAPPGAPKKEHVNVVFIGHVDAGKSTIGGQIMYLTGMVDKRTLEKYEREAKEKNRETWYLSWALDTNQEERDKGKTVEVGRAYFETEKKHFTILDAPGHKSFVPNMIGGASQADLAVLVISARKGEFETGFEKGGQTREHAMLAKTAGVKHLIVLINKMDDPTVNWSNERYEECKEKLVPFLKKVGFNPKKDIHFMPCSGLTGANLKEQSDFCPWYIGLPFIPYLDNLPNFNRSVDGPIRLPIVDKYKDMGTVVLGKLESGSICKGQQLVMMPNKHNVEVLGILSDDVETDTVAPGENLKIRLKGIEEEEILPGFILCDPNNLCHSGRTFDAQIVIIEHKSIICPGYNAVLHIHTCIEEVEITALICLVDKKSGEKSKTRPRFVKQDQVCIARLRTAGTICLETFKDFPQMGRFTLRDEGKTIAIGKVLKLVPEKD

Structure (SMILES)	IC50 (MV-4-11 cells; MV4-11, MV-4-11 cells, 72 h) [µM]	inhibition at 1 µM (GSPT1 protein; NB-4 cells, compound 1 μM, 6 h) [%]	further results
O=C1CCC(N2Cc3cc(CNC(=O)C4CCCCC4)c(F)cc3C2=O)C(=O)N1 (stereo not shown) [FDAB-42]	> 1	< 25	–
O=C1CCC(N2Cc3c(ccc(CNC(=O)c4ccc(Cl)cc4F)c3F)C2=O)C(=O)N1 (stereo not shown) [FDAB-117]	0.001 to 0.01	> 80	–
Nc1ccc(C(=O)NCc2cc3c(cc2F)C(=O)N(C2CCC(=O)NC2=O)C3)cc1 (stereo not shown) [FDAB-27]	> 1	< 25	–
O=C1CCC(N2Cc3c(ccc(CNCc4ccc(Cl)cc4)c3F)C2=O)C(=O)N1 (stereo not shown) [FDAB-168]	0.01 to 0.1	> 80	–
O=C1CCC(N2Cc3c(ccc(CNC(=O)c4ccc(Cl)cc4)c3Cl)C2=O)C(=O)N1 (stereo not shown) [FDAB-70]	0.1 to 1	25 to 50	–
NCc1ccc(-c2ccc(C(=O)NCc3ccc4c(c3F)CN(C3CCC(=O)NC3=O)C4=O)cc2)cc1 (stereo not shown) [FDAB-175]	< 0.001	–	–
CC(C)(C)OC(=O)NCc1ccc2c(c1F)CN(C1CCC(=O)NC1=O)C2=O (stereo not shown) [FDAB-2]	> 1	< 25	–
NCc1ccc2c(c1F)CN(C1CCC(=O)NC1=O)C2=O (stereo not shown) [FDAB-3]	> 1	< 25	–
N#Cc1cc2c(cc1F)C(=O)N(C1CCC(=O)NC1=O)C2 (stereo not shown) [FDAB-4]	> 1	< 25	–
CCCOc1ccc(/C=C/C(=O)NCc2ccc3c(c2F)CN(C2CCC(=O)NC2=O)C3=O)cc1 (stereo not shown) [FDAB-143]	< 0.001	> 80	–
O=C1CCC(N2Cc3cc(CNC(=O)c4ccccc4)c(F)cc3C2=O)C(=O)N1 (stereo not shown) [FDAB-25]	> 1	< 25	–
COc1cc(C(=O)NCc2ccc3c(c2F)CN(C2CCC(=O)NC2=O)C3=O)c(N)cc1OCc1ccccc1 (stereo not shown) [FDAB-178]	< 0.001	–	–
CCCCOc1ccc(CC(=O)NCc2ccc3c(c2F)CN(C2CCC(=O)NC2=O)C3=O)cc1 (stereo not shown) [FDAB-132]	< 0.001	> 80	–
NCCc1ccc(NC(=O)NCc2ccc3c(c2F)CN(C2CCC(=O)NC2=O)C3=O)cc1Cl (stereo not shown) [FDAB-182]	0.001 to 0.01	–	–
O=C1CCC(N2Cc3cc(CNC(=O)c4ccccn4)c(F)cc3C2=O)C(=O)N1 (stereo not shown) [FDAB-29]	> 1	< 25	–
O=C(Cc1c[nH]c2ccc(F)cc12)NCc1ccc2c(c1F)CN(C1CCC(=O)NC1=O)C2=O (stereo not shown) [FDAB-134]	0.001 to 0.01	50 to 80	–
O=C(Cc1ccc(Cl)cc1Cl)NCc1ccc2c(c1F)CN(C1CCC(=O)NC1=O)C2=O (stereo not shown) [FDAB-131]	< 0.001	> 80	–
O=C1CCC(N2Cc3cc(CNC(=O)c4ccc(Cl)cc4)c(Cl)cc3C2=O)C(=O)N1 (stereo not shown) [FDAB-74]	> 1	< 25	–
Nc1ccc(-c2ccc(C(=O)NCc3ccc4c(c3F)CN(C3CCC(=O)NC3=O)C4=O)cc2)cc1 (stereo not shown) [FDAB-177]	< 0.001	–	–
CCCc1ccc(C(=O)NCc2ccc3c(c2F)CN(C2CCC(=O)NC2=O)C3=O)cc1 (stereo not shown) [FDAB-91]	< 0.001	> 80	–
COc1cc(C)ccc1C(=O)NCc1ccc2c(c1F)CN(C1CCC(=O)NC1=O)C2=O (stereo not shown) [FDAB-104]	> 1	< 25	–
Nc1ccc(-c2ccc(C#CC(=O)NCc3ccc4c(c3F)CN(C3CCC(=O)NC3=O)C4=O)cc2)cc1 (stereo not shown) [FDAB-184]	< 0.001	–	–
O=C1CCC(N2Cc3c(ccc(CNC(=O)c4ccc(Cl)cn4)c3Cl)C2=O)C(=O)N1 (stereo not shown) [FDAB-80]	> 1	< 25	–
N#Cc1ccc(NCC(=O)NCc2ccc3c(c2F)CN(C2CCC(=O)NC2=O)C3=O)cc1 (stereo not shown) [FDAB-149]	> 1	< 25	–
NS(=O)(=O)c1cc(C(=O)NCc2ccc3c(c2F)CN(C2CCC(=O)NC2=O)C3=O)ccc1Cl (stereo not shown) [FDAB-115]	> 1	< 25	–

Structure (SMILES)	IC50 (MV-4-11 cells; MV4-11, MV-4-11 cells, 72 h) [µM]	inhibition at 1 µM (GSPT1 protein; NB-4 cells, compound 1 μM, 6 h) [%]	further results
O=C1CCC(N2Cc3c(ccc(CNC(=O)Nc4ccc(CCO)c(Cl)c4)c3F)C2=O)C(=O)N1 (stereo not shown) [FDAB-183]	< 0.001	–	–
O=C1CCC(N2Cc3cc(CNC(=O)c4ccncc4)c(F)cc3C2=O)C(=O)N1 (stereo not shown) [FDAB-31]	> 1	< 25	–
O=C1CCC(N2Cc3cc(CNC(=O)c4ccc(Cl)c(O)c4)c(F)cc3C2=O)C(=O)N1 (stereo not shown) [FDAB-55]	0.001 to 0.01	> 80	–
O=C1CCC(N2Cc3cc(CNC(=O)c4cc5ccccc5[nH]4)c(F)cc3C2=O)C(=O)N1 (stereo not shown) [FDAB-24]	0.001 to 0.01	> 80	–
O=C1CCC(N2Cc3cc(CNC(=O)c4cc5ccccc5o4)c(Cl)cc3C2=O)C(=O)N1 (stereo not shown) [FDAB-71]	> 1	< 25	–
N#Cc1cc(C(=O)NCc2cc3c(cc2F)C(=O)N(C2CCC(=O)NC2=O)C3)ccc1Cl (stereo not shown) [FDAB-54]	0.01 to 0.1	50 to 80	–
O=C1CCC(N2Cc3c(ccc(CNCc4ccc(Oc5ccccc5)cc4)c3F)C2=O)C(=O)N1 (stereo not shown) [FDAB-166]	–	–	IC50 (MV-4-11 cells; MV4-11, 72 h): 0.001 to 0.01 µM; inhibition at 1 µM (GSPT1 protein; NB-4, 6 h): > 80%
O=C1CCC(N2Cc3cc(CNC(=O)c4cccnc4)c(F)cc3C2=O)C(=O)N1 (stereo not shown) [FDAB-30]	> 1	< 25	–
CC(C)(C)Oc1ccc(C(=O)NCc2ccc3c(c2F)CN(C2CCC(=O)NC2=O)C3=O)cc1 (stereo not shown) [FDAB-103]	< 0.001	> 80	–
O=C1CCC(N2Cc3c(ccc(CNC(=O)c4ccc(Oc5ccccc5)cc4)c3F)C2=O)C(=O)N1 (stereo not shown) [FDAB-101]	< 0.001	> 80	–
Cc1ccc(C(=O)NCc2ccc3c(c2F)CN(C2CCC(=O)N(COC(=O)OC(C)C)C2=O)C3=O)c(F)c1 (stereo not shown) [FDAB-130]	–	–	IC50 (MV-4-11 cells; MV4-11, 72 h): 0.01 to 0.1 µM; inhibition at 1 µM (GSPT1 protein; NB-4, 6 h): 50 to 80%
O=C1CCC(N2Cc3c(ccc(CNC(=O)c4ccc(Cl)cc4Cl)c3F)C2=O)C(=O)N1 (stereo not shown) [FDAB-50]	0.001 to 0.01	> 80	–
O=C(C#Cc1cccc(O)c1)NCc1ccc2c(c1F)CN(C1CCC(=O)NC1=O)C2=O (stereo not shown) [FDAB-146]	< 0.001	> 80	–
Nc1cc(-c2ccccc2)ccc1C(=O)NCc1ccc2c(c1F)CN(C1CCC(=O)NC1=O)C2=O (stereo not shown) [FDAB-176]	0.001 to 0.01	–	–
O=C(C#Cc1ccc(-c2ccc(CCO)cc2)cc1)NCc1ccc2c(c1F)CN(C1CCC(=O)NC1=O)C2=O (stereo not shown) [FDAB-187]	< 0.001	–	–
CC(CCC(=O)NCc1ccc2c(c1F)CN(C1CCC(=O)NC1=O)C2=O)(c1ccc(O)cc1)c1ccc(O)cc1 (stereo not shown) [FDAB-180]	0.01 to 0.1	–	–
O=C(C#Cc1ccc(-c2ccc(O)cc2)cc1)NCc1ccc2c(c1F)CN(C1CCC(=O)NC1=O)C2=O (stereo not shown) [FDAB-186]	< 0.001	–	–
N[C@@H](CC(=O)NCc1ccc2c(c1F)CN(C1CCC(=O)NC1=O)C2=O)C(c1ccccc1)c1ccccc1 (stereo partly shown) [FDAB-181]	0.001 to 0.01	–	–
CC(C)(CN)c1ccc(C(=O)NCc2ccc3c(c2F)CN(C2CCC(=O)NC2=O)C3=O)cc1 (stereo not shown) [FDAB-174]	0.01 to 0.1	–	–
O=C1CCC(N2Cc3c(ccc(CNC(=O)c4ccc(OCc5ccccc5)c(O)c4)c3F)C2=O)C(=O)N1 (stereo not shown) [FDAB-179]	< 0.001	–	–
NCCc1ccc(-c2ccc(C#CC(=O)NCc3ccc4c(c3F)CN(C3CCC(=O)NC3=O)C4=O)cc2)cc1 (stereo not shown) [FDAB-188]	0.001 to 0.01	–	–
O=C1CCC(N2Cc3cc(CNC(=O)Nc4ccc(CCO)c(Cl)c4)ccc3C2=O)C(=O)N1 (stereo not shown) [FDAB-185]	0.001 to 0.01	–	–
O=C1CCC(N2Cc3cc(CNC(=O)c4ccc(Cl)cn4)c(F)cc3C2=O)C(=O)N1 (stereo not shown) [FDAB-57]	–	–	GSPT1 degradation (GSPT1 protein; NB-4 cells, compound 1 μM, 6 h): D (D denotes a percentage of degradation less than 25%)
CC(C)(C)c1ccc(C(=O)NCc2ccc3c(c2F)CN(C2CCC(=O)NC2=O)C3=O)cc1O (stereo not shown) [FDAB-173]	< 0.001	–	–
CC(C)(C)c1ccc(C(=O)NCc2ccc3c(c2F)CN(C2CCC(=O)NC2=O)C3=O)c(N)c1 (stereo not shown) [FDAB-172]	< 0.001	–	–

From patent publication US20250282746A1, “HALOGEN-SUBSTITUTED ISOINDOLINE COMPOUND AND USE THEREOF” (CHENGDU FENDI PHARMACEUTICAL CO., LTD., priority 2022, published 2025)
